Results reported in patent US8415358B2, “Pyrazine derivatives and their use as potassium channel modulators” (Neurosearch A/S, priority 2007, dated 2013).

How the values were obtained:
[1] = biological target: T1, hSK3 channels (Homo sapiens, UniProt Q9UGI6); assay: Whole-cell patch-clamp recording of ionic current through SK channels (subtype 3) in HEK293 cells expressing hSK3; assay type: cell-based; details: Stimulating Concentration required for increasing the baseline current by 100%, current at -75 mV, free Ca2+ 0.3-0.4 μM, room temperature
T1 construct: expressed in transfected cells; host or cells: HEK293
Experimental: The ionic current through small-conductance Ca^2+-activated K^+ channels (SK channels, subtype 3) is recorded using the whole-cell configuration of the patch-clamp technique.
HEK293 tissue culture cells expressing hSK3 channels were grown in DMEM (Dulbecco's Modified Eagle Medium) supplemented with 10% FCS (foetal calf serum) at 37° C. in 5% CO2. At 60-80% confluency, cells were harvested by trypsin treatment and seeded on cover slips.
Experiments are carried out on one of several patch-clamp set-ups. Cells plated on coverslips are placed in a 15 μl perfusion chamber (flowrate ˜1 ml/min) mounted on an IMT-2 microscope. The microscopes are placed on vibration-free tables in grounded Faraday cages. All experiments are performed at room temperature (20-22° C.). EPC-9 patch-clamp amplifiers (HEKA-electronics, Lambrect, Germany) are connected to Macintosh computers via ITC16 interfaces. Data are stored directly on the hard-disk and analysed by IGOR software (Wavemetrics, Lake Oswega, Oreg., USA).
The whole-cell configuration of the patch-clamp technique is applied. In short: The tip of a borosilicate pipette (resistance 2-4 MΩ) is gently placed on the cell membrane using remote control systems. Light suction results in the formation of a giga seal (pipette resistance increases to more than 1 GΩ) and the cell membrane underneath the pipette is then ruptured by more powerful suction. Cell capacitance is electronically compensated and the resistance between the pipette and the cell interior (the series resistance, Rs) is measured and compensated for. […]
The intracellular (pipette) solution contained: 154 mM KCl, 10 mM HEPES, 10 mM EGTA. Concentrations of CaCl2 and MgCl2 needed to obtain the desired free concentrations of Ca^2+ (0.3-0.4 μM, Mg^2+ always 1 mM) were calculated by EqCal software (Cambridge, UK) and added.
After establishment of the whole-cell configuration, voltage-ramps (normally −80 to +80 mV) are applied to the cell every 5 seconds from a holding potential of 0 mV. […] Active compounds are quantified by calculating the change in baseline current at −75 mV. […]

melting point [°C] | SC100 [1] [µM] | SMILES
155 to 157 | – | Clc1ccc(Nc2cncc(-n3cccn3)n2)cc1 [Compound 3, (4-Chloro-phenyl)-(6-pyrazol-1-yl-pyrazin-2-yl)-amine]
249 to 252 | – | Clc1ccc(Nc2cncc(-n3cc4ccccc4n3)n2)cc1 [Compound 3.1, (4-Chloro-phenyl)-(6-indazol-2-yl-pyrazin-2-yl)-amine]
204 to 207 | – | Clc1ccc(Nc2cncc(-n3ncc4ccccc43)n2)cc1 [Compound 3.2, (4-Chloro-phenyl)-(6-indazol-1-yl-pyrazin-2-yl)-amine]
157 to 158.9 | 0.25 | Cc1cc(C)n(-c2cncc(Nc3ccc(Cl)cc3)n2)n1 [Compound 4, (4-Chloro-phenyl)-[6-(3,5-dimethyl-pyrazol-1-yl)-pyrazin-2-yl]-amine]
186 to 188 | – | Cc1cccc(-c2cncc(Nc3ccc(Cl)cc3)n2)n1 [Compound 8.1, (4-Chloro-phenyl)-[6-(6-methyl-pyridin-2-yl)-pyrazin-2-yl]-amine]
– | 0.30 | Clc1ccc(Nc2cncc(-c3nccs3)n2)cc1 [Compound 8.4, (4-Chloro-phenyl)-(6-thiazol-2-yl-pyrazin-2-yl)-amine]
112 to 114 | – | Cc1cc(C)n(-c2cnc(CN(C)C)c(Nc3ccc(Cl)cc3)n2)n1 [Compound 14.1, (4-Chloro-phenyl)-[3-dimethylaminomethyl-6-(3,5-dimethyl-pyrazol-1-yl)-pyrazin-2-yl]-amine]
105 to 108 | – | COCc1ncc(-n2nc(C)cc2C)nc1Nc1ccc(Cl)cc1 [Compound 16.1, (4-Chloro-phenyl)-[6-(3,5-dimethyl-pyrazol-1-yl)-3-methoxymethyl-pyrazin-2-yl]-amine]
147 to 151 | – | COCc1ncc(Nc2ccc(Cl)cc2)nc1-n1nc(C)cc1C [Compound 17.1]
228 to 231 | 0.075 | Cc1cc(C)n(-c2cnc(/C=N/O)c(Nc3ccc(Cl)cc3)n2)n1 [Compound 20.1, 3-(4-Chloro-phenylamino)-5-(3,5-dimethyl-pyrazol-1-yl) -pyrazine-2-carbaldehyde oxime]
156 to 160 | – | Cc1cc(C)n(-c2cnc(CN)c(Nc3ccc(Cl)cc3)n2)n1 [Compound 21.1, [3-Aminomethyl-6-(3,5-dimethyl-pyrazol-1-yl)-pyrazin-2-yl]-(4-chloro-phenyl)-amine]
228 to 230 | – | CC(=O)NCc1ncc(-n2nc(C)cc2C)nc1Nc1ccc(Cl)cc1 [Compound 22.1, N-[3-(4-Chloro-phenylamino)-5-(3,5-dimethyl-pyrazol-1-yl)-pyrazin-2-ylmethyl]-acetamide]
122 to 124 | – | CCNc1ncc(Nc2ccc(Cl)cc2)nc1-n1nc(C)cc1C [Compound 27.2, 5-(4-Chloro-phenylamino)-3-(3,5-dimethyl-pyrazol-1-yl)-2-ethylamino-pyrazine]
